A short description of test [1]: Inhibitory activity against type A neuraminidase (N2). Details: species or system unidentified influenza virus.
A short description of test [2]: Inhibitory activity against type A neuraminidase (N9). Details: species or system unidentified influenza virus.

SMILES strings stand for the structures.

As to `C=C(C)NC(C(CC)CC)[C@@H]1[C@H](O)[C@@H](C(=O)O)C[C@H]1N=C(N)N` (some centres not stated), the “Log IC50” value in test [1] and in test [2] was -10 each time.

Source of the values: ChEMBL document CHEMBL1134378 (J Med Chem, 2001).
